For orientation: IC50 means the concentration that gives 50% inhibition.

For 33 compounds, IC50 results are on record in patent US20230150970A1, “AMINOPYRIMIDINE DERIVATIVES AND THEIR USE AS ARYL HYDROCARBON RECEPTOR MODULATORS” (DONG-A ST CO., LTD., priority 2020, published 2023).

Some results are limits rather than exact numbers.

The target in the first experiment is T1, AhR (Homo sapiens, UniProt P35869).
T1 sequence (P35869 11-848): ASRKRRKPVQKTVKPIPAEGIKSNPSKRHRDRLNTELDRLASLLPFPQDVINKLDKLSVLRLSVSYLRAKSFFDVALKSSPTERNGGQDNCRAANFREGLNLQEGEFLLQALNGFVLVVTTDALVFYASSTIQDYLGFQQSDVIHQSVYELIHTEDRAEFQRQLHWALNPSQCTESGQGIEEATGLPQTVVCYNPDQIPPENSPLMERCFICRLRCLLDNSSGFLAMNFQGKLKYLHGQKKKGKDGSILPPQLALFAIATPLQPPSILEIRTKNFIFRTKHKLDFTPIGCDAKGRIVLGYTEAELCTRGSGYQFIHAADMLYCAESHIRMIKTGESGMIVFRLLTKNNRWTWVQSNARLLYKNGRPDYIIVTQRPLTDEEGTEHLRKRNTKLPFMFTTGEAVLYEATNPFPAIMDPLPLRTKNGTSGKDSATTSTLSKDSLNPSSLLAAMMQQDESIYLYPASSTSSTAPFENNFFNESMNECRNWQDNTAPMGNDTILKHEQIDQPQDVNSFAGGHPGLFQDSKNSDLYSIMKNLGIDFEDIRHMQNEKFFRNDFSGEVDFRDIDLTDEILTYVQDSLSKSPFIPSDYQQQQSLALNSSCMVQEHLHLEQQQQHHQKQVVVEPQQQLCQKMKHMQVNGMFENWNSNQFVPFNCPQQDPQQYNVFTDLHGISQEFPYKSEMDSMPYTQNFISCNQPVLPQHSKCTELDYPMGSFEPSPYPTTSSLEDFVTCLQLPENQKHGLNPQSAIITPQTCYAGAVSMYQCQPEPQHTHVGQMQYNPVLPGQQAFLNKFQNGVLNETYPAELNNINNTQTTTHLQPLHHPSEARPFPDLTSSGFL
As to the kind of experiment: In Vitro Assay 1: XRE-luciferase reporter assay, antagonism in human cell line (HepG2). To be noted: Assay 1: AhR-Luc Human Antagonism (IC50, nM), unmarked values: kynurenine 200 μM, 6 hours. For orientation: Reporter assays use an easily measured gene product as a stand-in for the process of interest.
The compound `OCC1CCN(c2cc(-c3ccc(OC(F)(F)F)cc3)nc(-c3cccnc3)n2)CC1` [Example 227, (1-(2-(pyridin-3-yl)-6-(4-(trifluoromethoxy)phenyl)pyrimidin-4-yl)piperidin-4-yl)methanol] displayed an IC50 of 10 to 100 nM. Consider `CC(O)C(=O)NC1CCN(c2cc(-c3ccc(Cl)cc3)nc(-c3cccnc3)n2)CC1` (stereo not drawn) [Example 237, N-(1-(6-(4-chlorophenyl)-2-(pyridin-3-yl)pyrimidin-4-yl)piperidin-4-yl)-2-hydroxypropanamide], for which the half-inhibitory concentration (IC50) was in the range of 10 to 100 nM.

Still in this experiment, the particulars now being: Assay 1: AhR-Luc Human Antagonism (IC50, nM), values marked *: kynurenine 50 μM, 6 hours.
The compound `Clc1ccc(-c2cc(N3CCC4CCCOC4C3)nc(-c3cccnc3)n2)cc1` (stereo not drawn) [Example 190, 7-(6-(4-chlorophenyl)-2-(pyridin-3-yl)pyrimidin-4-yl)octahydro-2H-pyrano[2,3-c]pyridine] registered an IC50 of 10 to 100 nM. In turn, `OC1CCOC2CN(c3cc(-c4ccc(Cl)cc4)nc(-c4cccnc4)n3)CCC12` (stereo not drawn) [Example 191, 7-(6-(4-chlorophenyl)-2-(pyridin-3-yl)pyrimidin-4-yl)octahydro-2H-pyrano[2,3-c]pyridin-4-ol] showed an IC50 of 10 to 100 nM. The same measure, in the same setting: with `CC[C@@H](Nc1cc(-c2ccc(Cl)cc2)nc(-c2cccnc2)n1)[C@@H](C)O` [Example 192, (2R,3R)-3-((6-(4-chlorophenyl)-2-(pyridin-3-yl)pyrimidin-4-yl)amino)pentan-2-ol] the figure was 100 to 1000 nM; with `CN1CCC(CNc2cc(-c3ccc(Cl)cc3)nc(-c3cccnc3)n2)CC1` [Example 193, 6-(4-chlorophenyl)-N-((1-methylpiperidin-4-yl)methyl)-2-(pyridin-3-yl)pyrimidin-4-amine], 100 to 1000 nM. The same measure, in the same setting: with `O[C@@H]1CCN(c2cc(-c3ccc(Cl)cc3)nc(-c3cccnc3)n2)C1` [Example 194, (R)-1-(6-(4-chlorophenyl)-2-(pyridin-3-yl)pyrimidin-4-yl)pyrrolidin-3-ol] the figure was less than 10 nM; with `COC[C@@H]1CCCN1Nc1cc(-c2ccc(Cl)cc2)nc(-c2cccnc2)n1` [Example 195, (S)-6-(4-chlorophenyl)-N-(2-(methoxymethyl)pyrrolidin-1-yl)-2-(pyridin-3-yl)pyrimidin-4-amine], more than 1000 nM. Still for that read-out and setting: with `F[C@H]1CCN(c2cc(-c3ccc(Cl)cc3)nc(-c3cccnc3)n2)C1` [Example 196, (S)-4-(4-chlorophenyl)-6-(3-fluoropyrrolidin-1-yl)-2-(pyridin-3-yl)pyrimidine] the figure was 10 to 100 nM; with `FC(F)(F)C1CCCN1c1cc(-c2ccc(Cl)cc2)nc(-c2cccnc2)n1` (stereo not drawn) [Example 197, 4-(4-chlorophenyl)-2-(pyridin-3-yl)-6-(2-(trifluoromethyl)pyrrolidin-1-yl)pyrimidine], more than 1000 nM; with `FC1(F)CCN(c2cc(-c3ccc(Cl)cc3)nc(-c3cccnc3)n2)C1` [Example 198, 4-(4-chlorophenyl)-6-(3,3-difluoropyrrolidin-1-yl)-2-(pyridin-3-yl)pyrimidine], 10 to 100 nM. Consider `Clc1ccc(-c2cc(N3CCC(N4CCOCC4)C3)nc(-c3cccnc3)n2)cc1` (stereo not drawn) [Example 199, 4-(1-(6-(4-chlorophenyl)-2-(pyridin-3-yl)pyrimidin-4-yl)pyrrolidin-3-yl)morpholine], for which the IC50 is 100 to 1000 nM. `O=C1CCC(CNc2cc(-c3ccc(Cl)cc3)nc(-c3cccnc3)n2)N1` (stereo not drawn) [Example 200, 5-(((6-(4-chlorophenyl)-2-(pyridin-3-yl)pyrimidin-4-yl)amino)methyl)pyrrolidin-2-one] came in with an IC50 of more than 1000 nM. Compound `CO[C@H]1CN(C)C[C@@H]1Nc1cc(-c2ccc(Cl)cc2)nc(-c2cccnc2)n1` [Example 202, 6-(4-chlorophenyl)-N-((3S,4S)-4-methoxy-1-methylpyrrolidin-3-yl)-2-(pyridin-3-yl)pyrimidin-4-amine] showed an IC50 of more than 1000 nM. On the same count and under the same terms, with `Clc1ccc(-c2cc(N[C@@H]3CCCNC3)nc(-c3cccnc3)n2)cc1` [Example 203, (R)-6-(4-chlorophenyl)-N-(piperidin-3-yl)-2-(pyridin-3-yl)pyrimidin-4-amine] the figure was 100 to 1000 nM.

With `Clc1ccc(-c2cc(NC3CCCNC3)nc(-c3cccnc3)n2)cc1` (stereo not drawn) [Example 204, 6-(4-chlorophenyl)-N-(piperidin-3-yl)-2-(pyridin-3-yl)pyrimidin-4-amine], the IC50 is more than 1000 nM. Same read-out and setting: then `F[C@@H]1CNCC[C@H]1Nc1cc(-c2ccc(Cl)cc2)nc(-c2cccnc2)n1` [Example 205, 6-(4-chlorophenyl)-N-((3R,4R)-3-fluoropiperidin-4-yl)-2-(pyridin-3-yl)pyrimidin-4-amine], with more than 1000 nM; and `Clc1ccc(-c2cc(NC[C@H]3CCNC3)nc(-c3cccnc3)n2)cc1` [Example 206, (S)-6-(4-chlorophenyl)-2-(pyridin-3-yl)-N-(pyrrolidin-3-ylmethyl)pyrimidin-4-amine], with more than 1000 nM; and `COC(=O)[C@H]1C[C@@H](Nc2cc(-c3ccc(Cl)cc3)nc(-c3cccnc3)n2)CN1` [Example 207, methyl (2R,4R)-4-((6-(4-chlorophenyl)-2-(pyridin-3-yl)pyrimidin-4-yl)amino)pyrrolidine-2-carboxylate], with more than 1000 nM.

The compound `O=C(O)[C@H]1C[C@H](Nc2cc(-c3ccc(Cl)cc3)nc(-c3cccnc3)n2)CN1` [Example 208, (2R,4S)-4-((6-(4-chlorophenyl)-2-(pyridin-3-yl)pyrimidin-4-yl)amino)pyrrolidine-2-carboxylic acid] displayed an IC50 of more than 1000 nM. For the compound `ClC[C@@H]1CCN(c2cc(-c3ccc(Cl)cc3)nc(-c3cccnc3)n2)C1` [Example 210, (R)-4-(3-(chloromethyl)pyrrolidin-1-yl)-6-(4-chlorophenyl)-2-(pyridin-3-yl)pyrimidine], the IC50 was 10 to 100 nM. In turn, `ClC[C@H]1CCN(c2cc(-c3ccc(Cl)cc3)nc(-c3cccnc3)n2)C1` [Example 211, (S)-4-(3-(chloromethyl)pyrrolidin-1-yl)-6-(4-chlorophenyl)-2-(pyridin-3-yl)pyrimidine] returned an IC50 of 10 to 100 nM.

Compound `N#CC1CCN(c2cc(-c3ccc(Cl)cc3)nc(-c3cccnc3)n2)C1` (stereo not drawn) [Example 212, 1-(6-(4-chlorophenyl)-2-(pyridin-3-yl)pyrimidin-4-yl)pyrrolidine-3-carbonitrile] had a half-inhibitory concentration (IC50) of 10 to 100 nM. The compound `CC[C@@H](O)CNc1cc(-c2ccc(Cl)cc2)nc(-c2cccnc2)n1` [Example 213, (R)-1-((6-(4-chlorophenyl)-2-(pyridin-3-yl)pyrimidin-4-yl)amino)butan-2-ol] came in with an IC50 of 10 to 100 nM. The same measure, in the same setting: then `O[C@@H]1CC[C@H](Nc2cc(-c3ccc(Cl)cc3)nc(-c3cccnc3)n2)C1` [Example 214, (1R,3S)-3-((6-(4-chlorophenyl)-2-(pyridin-3-yl)pyrimidin-4-yl)amino)cyclopentan-1-ol], with 10 to 100 nM. On the same count and under the same terms, with `COCCN1CCN(c2cc(-c3ccc(Cl)cc3)nc(-c3cccnc3)n2)CC1` [Example 218, 4-(4-chlorophenyl)-6-(4-(2-methoxyethyl)piperazin-1-yl)-2-(pyridin-3-yl)pyrimidine] the figure was less than 10 nM; with `O[C@@H]1CCN(c2cc(-c3ccc(Cl)cc3)nc(-c3cccnc3)n2)C[C@@H]1F` [Example 219, (3S,4R)-1-(6-(4-chlorophenyl)-2-(pyridin-3-yl)pyrimidin-4-yl)-3-fluoropiperidin-4-ol], less than 10 nM; with `O[C@H]1CCN(c2cc(-c3ccc(Cl)cc3)nc(-c3cccnc3)n2)C[C@H]1F` [Example 220, (3R,4S)-1-(6-(4-chlorophenyl)-2-(pyridin-3-yl)pyrimidin-4-yl)-3-fluoropiperidin-4-ol], 10 to 100 nM. `O[C@@H]1CCN(c2cc(-c3ccc(Cl)cc3)nc(-c3cccnc3)n2)C[C@H]1F` [Example 221, (3R,4R)-1-(6-(4-chlorophenyl)-2-(pyridin-3-yl)pyrimidin-4-yl)-3-fluoropiperidin-4-ol] displayed an IC50 of 10 to 100 nM. The same measure, in the same setting: then `O[C@H]1CCN(c2cc(-c3ccc(Cl)cc3)nc(-c3cccnc3)n2)C[C@@H]1F` [Example 222, (3S,4S)-1-(6-(4-chlorophenyl)-2-(pyridin-3-yl)pyrimidin-4-yl)-3-fluoropiperidin-4-ol], with less than 10 nM; and `O=C(CO)N1CCN(c2cc(-c3ccc(Cl)cc3)nc(-c3cccnc3)n2)CC1` [Example 223, 1-(4-(6-(4-chlorophenyl)-2-(pyridin-3-yl)pyrimidin-4-yl)piperazin-1-yl)-2-hydroxyethan-1-one], with less than 10 nM. On the same count and under the same terms, then `OCC1CCN(c2cc(-c3ccc(Cl)cc3)nc(-c3cccnc3)n2)CC1O` (stereo not drawn) [Example 233, 1-(6-(4-chlorophenyl)-2-(pyridin-3-yl)pyrimidin-4-yl)-4-(hydroxymethyl)piperidin-3-ol], with less than 10 nM. The same measure, in the same setting: then `O[C@@H]1CN(c2cc(-c3ccc(Cl)cc3)nc(-c3cccnc3)n2)C[C@H]1F` [Example 234, (3R,4R)-1-(6-(4-chlorophenyl)-2-(pyridin-3-yl)pyrimidin-4-yl)-4-fluoropyrrolidin-3-ol], with less than 10 nM.
